We go through eight compounds from ChEMBL document CHEMBL4261592, “Antiplasmodial flavanones and a stilbene from Carpha glomerata” (Bioorg Med Chem Lett, 2018).

Each structure is given as a SMILES string.

For orientation: IC50 means the concentration needed to halve the response being measured.

The subject of the assay is Plasmodium falciparum. Nature of the assay: Antiplasmodial activity against ring-stage chloroquine-resistant Plasmodium falciparum Dd2 assessed as reduction in parasite viability after 72 hrs by SYBR Green I dye-based assay. The assay is classed as functional, organism-based. As to conditions: Dd2, 72 h.
For the compound `COc1c(O)ccc(/C=C/c2cc(O)cc(O)c2)c1CC=C(C)C`, the half-inhibitory concentration (IC50) is 5.8 µM.

With `C[C@@H]1CC[C@H]2[C@@H](C)C(=O)O[C@@H]3O[C@@]4(C)CC[C@@H]1[C@]32OO4` [ARTEMISININ], the 50% inhibitory concentration (IC50) came to 0.012 µM.

`CC(C)=CCc1c(O)cc(O)c2c1O[C@H](c1ccc(O)cc1)CC2=O`: the IC50 turned out to be 6.7 µM.

On to `COc1c(O)cc([C@@H]2CC(=O)c3c(O)c(C)c(OC)c(C)c3O2)cc1O`, for which the half-inhibitory concentration (IC50) was more than 10 µM.

For `COc1cc2c(c(O)c1C)C(=O)C[C@@H](c1cc(O)c(OC)c(O)c1)O2`, the IC50 is more than 10 µM.

Take `COc1c(O)cc([C@@H]2CC(=O)c3c(O)cc(O)c(CC=C(C)C)c3O2)cc1O`: the IC50 was 5.2 µM.

`CC(C)(O)CCc1c(O)cc(O)c2c1O[C@H](c1ccc(O)cc1)CC2=O`: the concentration for half-maximal inhibition (IC50) came to 3.4 µM.

As to `COc1c(O)cc([C@@H]2CC(=O)c3c(O)c(C)c(O)c(C)c3O2)cc1O`, the 50% inhibitory concentration (IC50) is more than 10 µM.
